# Measured values as given in ChEMBL document CHEMBL2331489, “Novel cinnoline-based inhibitors of LRRK2 kinase activity” (Bioorg Med Chem Lett, 2013).
# Target: Dual specificity tyrosine-phosphorylation-regulated kinase 1B (Homo sapiens) (UniProt Q9Y463)
# Assay: Inhibition of DYRK1B (unknown origin) at 10 uM relative to control
# Sequence of Dual specificity tyrosine-phosphorylation-regulated kinase 1B (Homo sapiens) (Q9Y463 whole entry, looked up): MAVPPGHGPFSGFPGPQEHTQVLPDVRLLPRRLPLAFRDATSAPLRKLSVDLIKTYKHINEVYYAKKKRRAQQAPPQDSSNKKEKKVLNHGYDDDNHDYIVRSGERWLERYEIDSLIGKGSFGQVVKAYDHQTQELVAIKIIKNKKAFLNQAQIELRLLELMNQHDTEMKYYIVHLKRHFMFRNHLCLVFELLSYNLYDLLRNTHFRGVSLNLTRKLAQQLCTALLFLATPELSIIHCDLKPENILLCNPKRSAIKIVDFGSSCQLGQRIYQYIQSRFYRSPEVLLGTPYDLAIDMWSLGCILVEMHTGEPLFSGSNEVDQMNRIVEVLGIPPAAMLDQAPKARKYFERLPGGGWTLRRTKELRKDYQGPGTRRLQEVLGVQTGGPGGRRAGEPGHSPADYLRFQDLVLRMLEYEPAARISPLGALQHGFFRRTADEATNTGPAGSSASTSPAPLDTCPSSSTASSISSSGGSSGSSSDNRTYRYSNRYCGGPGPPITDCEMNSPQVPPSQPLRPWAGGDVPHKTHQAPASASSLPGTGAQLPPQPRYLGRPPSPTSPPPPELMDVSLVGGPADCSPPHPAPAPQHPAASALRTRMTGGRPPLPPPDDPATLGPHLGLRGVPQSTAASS
row,inhibition [%],Structure (SMILES)
1,97,CC(C)Nc1c(C(N)=O)nnc2ccc(-c3ccncc3)cc12
2,3,C[C@@H](Nc1c(C(N)=O)nnc2cc(-c3ccc(S(C)(=O)=O)cc3)ccc12)C1CC1
3,44,CC(C)Nc1c(C(N)=O)nnc2cc(-c3ccncc3)ccc12

# Target: Glycogen synthase kinase-3 beta (Homo sapiens) (UniProt P49841)
# Assay: Inhibition of GSK3beta (unknown origin) at 10 uM relative to control
row,inhibition [%],Structure (SMILES)
1,94,CC(C)Nc1c(C(N)=O)nnc2ccc(-c3ccncc3)cc12
2,29,C[C@@H](Nc1c(C(N)=O)nnc2cc(-c3ccc(S(C)(=O)=O)cc3)ccc12)C1CC1
3,88,CC(C)Nc1c(C(N)=O)nnc2cc(-c3ccncc3)ccc12

# Target: Serine/threonine-protein kinase PAK 4 (Homo sapiens) (UniProt O96013)
# Assay: Inhibition of PAK4 (unknown origin) at 10 uM relative to control
# Sequence of Serine/threonine-protein kinase PAK 4 (Homo sapiens) (O96013 whole entry, looked up): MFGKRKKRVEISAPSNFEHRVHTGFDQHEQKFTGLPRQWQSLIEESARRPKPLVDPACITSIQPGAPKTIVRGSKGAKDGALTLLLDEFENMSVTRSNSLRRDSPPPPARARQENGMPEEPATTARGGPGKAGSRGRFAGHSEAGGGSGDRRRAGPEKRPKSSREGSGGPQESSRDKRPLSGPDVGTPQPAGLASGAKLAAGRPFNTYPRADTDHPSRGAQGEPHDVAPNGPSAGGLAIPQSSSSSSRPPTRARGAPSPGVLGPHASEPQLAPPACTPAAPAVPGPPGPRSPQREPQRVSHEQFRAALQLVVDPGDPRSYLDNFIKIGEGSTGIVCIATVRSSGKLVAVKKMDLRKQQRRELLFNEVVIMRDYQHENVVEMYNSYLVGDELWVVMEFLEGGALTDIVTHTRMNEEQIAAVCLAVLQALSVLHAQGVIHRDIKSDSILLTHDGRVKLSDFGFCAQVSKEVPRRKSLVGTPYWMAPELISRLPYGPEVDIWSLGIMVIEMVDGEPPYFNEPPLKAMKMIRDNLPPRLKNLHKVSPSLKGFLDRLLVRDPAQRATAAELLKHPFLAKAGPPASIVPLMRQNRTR
row,inhibition [%],Structure (SMILES)
1,58,CC(C)Nc1c(C(N)=O)nnc2ccc(-c3ccncc3)cc12
2,33,C[C@@H](Nc1c(C(N)=O)nnc2cc(-c3ccc(S(C)(=O)=O)cc3)ccc12)C1CC1
3,82,CC(C)Nc1c(C(N)=O)nnc2cc(-c3ccncc3)ccc12

# Target: Platelet-derived growth factor receptor alpha (Homo sapiens, UniProt P16234)
# Assay: Inhibition of PDGFRalpha (unknown origin) at 10 uM relative to control
row,inhibition [%],Structure (SMILES)
1,100,CC(C)Nc1c(C(N)=O)nnc2ccc(-c3ccncc3)cc12
2,93,C[C@@H](Nc1c(C(N)=O)nnc2cc(-c3ccc(S(C)(=O)=O)cc3)ccc12)C1CC1

# Target: Insulin receptor (Homo sapiens) (UniProt P06213)
# Assay: Inhibition of INSR (unknown origin) at 10 uM relative to control
# Sequence of Insulin receptor (Homo sapiens) (P06213 28-758 limits assumed): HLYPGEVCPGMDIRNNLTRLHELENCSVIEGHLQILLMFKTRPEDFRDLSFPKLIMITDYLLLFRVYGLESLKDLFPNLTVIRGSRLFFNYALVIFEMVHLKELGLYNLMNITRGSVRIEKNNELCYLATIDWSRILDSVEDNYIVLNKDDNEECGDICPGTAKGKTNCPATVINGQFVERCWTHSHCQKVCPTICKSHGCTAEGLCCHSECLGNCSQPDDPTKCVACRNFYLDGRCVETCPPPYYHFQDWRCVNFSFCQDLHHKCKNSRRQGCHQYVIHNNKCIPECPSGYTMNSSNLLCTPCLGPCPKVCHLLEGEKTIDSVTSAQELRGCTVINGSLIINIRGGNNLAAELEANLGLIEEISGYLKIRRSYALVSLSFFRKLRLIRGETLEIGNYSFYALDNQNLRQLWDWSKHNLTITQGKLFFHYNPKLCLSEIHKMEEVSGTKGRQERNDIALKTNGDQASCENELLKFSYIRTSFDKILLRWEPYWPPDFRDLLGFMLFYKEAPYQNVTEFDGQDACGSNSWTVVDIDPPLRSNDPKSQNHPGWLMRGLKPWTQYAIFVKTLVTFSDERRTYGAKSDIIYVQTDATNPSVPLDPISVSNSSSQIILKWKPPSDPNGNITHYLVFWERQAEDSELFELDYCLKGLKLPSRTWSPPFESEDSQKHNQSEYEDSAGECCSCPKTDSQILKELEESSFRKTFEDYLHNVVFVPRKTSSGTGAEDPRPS
# Sequence of Insulin receptor (Homo sapiens) (P06213 763-1382 limits assumed): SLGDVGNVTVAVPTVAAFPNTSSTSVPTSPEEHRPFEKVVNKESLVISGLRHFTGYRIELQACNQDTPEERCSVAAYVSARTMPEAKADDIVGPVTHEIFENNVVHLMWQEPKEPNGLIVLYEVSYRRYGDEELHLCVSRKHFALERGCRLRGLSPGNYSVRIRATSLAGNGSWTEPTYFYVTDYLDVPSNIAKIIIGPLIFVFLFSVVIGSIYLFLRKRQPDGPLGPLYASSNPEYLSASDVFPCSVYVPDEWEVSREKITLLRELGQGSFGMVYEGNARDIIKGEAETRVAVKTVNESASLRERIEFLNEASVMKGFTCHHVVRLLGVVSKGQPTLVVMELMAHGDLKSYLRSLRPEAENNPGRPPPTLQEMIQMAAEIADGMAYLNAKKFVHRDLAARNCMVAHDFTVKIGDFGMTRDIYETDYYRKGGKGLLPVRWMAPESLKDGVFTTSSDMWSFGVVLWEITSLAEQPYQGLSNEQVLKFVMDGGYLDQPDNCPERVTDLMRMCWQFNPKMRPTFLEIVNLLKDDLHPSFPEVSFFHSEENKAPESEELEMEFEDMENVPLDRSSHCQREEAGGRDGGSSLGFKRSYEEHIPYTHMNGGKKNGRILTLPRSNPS
row,inhibition [%],Structure (SMILES)
1,13,CC(C)Nc1c(C(N)=O)nnc2ccc(-c3ccncc3)cc12
2,0,C[C@@H](Nc1c(C(N)=O)nnc2cc(-c3ccc(S(C)(=O)=O)cc3)ccc12)C1CC1
3,33,CC(C)Nc1c(C(N)=O)nnc2cc(-c3ccncc3)ccc12

# Target: Tyrosine-protein kinase JAK1 (Homo sapiens) (UniProt P23458)
# Assay: Inhibition of JAK1 (unknown origin) at 10 uM relative to control
row,inhibition [%],Structure (SMILES)
1,33,CC(C)Nc1c(C(N)=O)nnc2ccc(-c3ccncc3)cc12
2,74,C[C@@H](Nc1c(C(N)=O)nnc2cc(-c3ccc(S(C)(=O)=O)cc3)ccc12)C1CC1
3,96,CC(C)Nc1c(C(N)=O)nnc2cc(-c3ccncc3)ccc12

# Target: T1, Aurora kinase A (Homo sapiens) (UniProt O14965)
# T1 sequence (whole entry): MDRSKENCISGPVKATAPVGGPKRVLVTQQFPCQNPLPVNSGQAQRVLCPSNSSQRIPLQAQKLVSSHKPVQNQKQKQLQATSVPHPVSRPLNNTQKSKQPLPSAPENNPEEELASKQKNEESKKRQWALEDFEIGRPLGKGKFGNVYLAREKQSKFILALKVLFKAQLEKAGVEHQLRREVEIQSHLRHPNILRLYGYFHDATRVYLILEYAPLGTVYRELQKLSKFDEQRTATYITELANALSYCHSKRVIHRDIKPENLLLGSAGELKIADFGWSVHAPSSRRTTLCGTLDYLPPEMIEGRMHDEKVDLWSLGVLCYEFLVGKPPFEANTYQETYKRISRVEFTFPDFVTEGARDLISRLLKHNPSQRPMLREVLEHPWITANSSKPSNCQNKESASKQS
# Assay: Inhibition of Aurora A (unknown origin) at 10 uM relative to control
row,inhibition [%],Structure (SMILES)
1,83,CC(C)Nc1c(C(N)=O)nnc2ccc(-c3ccncc3)cc12
2,68,C[C@@H](Nc1c(C(N)=O)nnc2cc(-c3ccc(S(C)(=O)=O)cc3)ccc12)C1CC1
3,90,CC(C)Nc1c(C(N)=O)nnc2cc(-c3ccncc3)ccc12

# Target: Receptor tyrosine-protein kinase erbB-4 (Homo sapiens) (UniProt Q15303)
# Assay: Inhibition of ERBB4 (unknown origin) at 10 uM relative to control
# Sequence of Receptor tyrosine-protein kinase erbB-4 (Homo sapiens) (Q15303 whole entry): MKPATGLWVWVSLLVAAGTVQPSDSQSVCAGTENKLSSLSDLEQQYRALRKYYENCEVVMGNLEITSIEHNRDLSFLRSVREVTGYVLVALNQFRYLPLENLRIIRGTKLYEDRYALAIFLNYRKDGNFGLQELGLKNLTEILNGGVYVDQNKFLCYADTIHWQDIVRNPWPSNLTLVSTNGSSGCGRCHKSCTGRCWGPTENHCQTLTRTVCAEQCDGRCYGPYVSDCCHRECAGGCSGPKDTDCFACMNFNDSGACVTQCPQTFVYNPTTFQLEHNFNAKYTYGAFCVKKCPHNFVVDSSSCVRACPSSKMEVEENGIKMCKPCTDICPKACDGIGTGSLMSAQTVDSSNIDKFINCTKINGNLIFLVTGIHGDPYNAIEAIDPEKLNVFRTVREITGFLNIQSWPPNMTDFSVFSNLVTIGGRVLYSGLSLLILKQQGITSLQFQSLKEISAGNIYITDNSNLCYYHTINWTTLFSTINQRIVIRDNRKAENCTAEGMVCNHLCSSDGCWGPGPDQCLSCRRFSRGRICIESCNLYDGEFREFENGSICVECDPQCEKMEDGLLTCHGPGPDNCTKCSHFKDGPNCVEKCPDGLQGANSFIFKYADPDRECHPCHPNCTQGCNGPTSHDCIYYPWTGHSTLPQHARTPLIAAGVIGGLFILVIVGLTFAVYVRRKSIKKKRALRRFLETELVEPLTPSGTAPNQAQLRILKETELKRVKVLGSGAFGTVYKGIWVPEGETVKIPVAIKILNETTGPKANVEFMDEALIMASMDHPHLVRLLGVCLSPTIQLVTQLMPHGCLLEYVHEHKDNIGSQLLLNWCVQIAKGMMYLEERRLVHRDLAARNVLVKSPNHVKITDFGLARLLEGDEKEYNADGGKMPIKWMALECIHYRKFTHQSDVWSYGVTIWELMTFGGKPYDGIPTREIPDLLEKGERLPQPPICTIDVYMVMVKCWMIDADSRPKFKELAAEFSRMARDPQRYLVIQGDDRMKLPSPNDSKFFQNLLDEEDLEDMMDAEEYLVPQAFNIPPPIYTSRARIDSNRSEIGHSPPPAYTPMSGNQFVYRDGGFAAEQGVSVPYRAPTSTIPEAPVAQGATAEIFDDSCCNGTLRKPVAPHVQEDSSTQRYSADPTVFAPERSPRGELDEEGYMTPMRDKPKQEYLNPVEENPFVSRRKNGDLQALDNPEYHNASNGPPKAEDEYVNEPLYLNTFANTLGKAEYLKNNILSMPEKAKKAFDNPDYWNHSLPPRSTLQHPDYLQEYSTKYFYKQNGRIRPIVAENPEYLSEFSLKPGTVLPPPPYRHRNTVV
row,inhibition [%],Structure (SMILES)
1,21,CC(C)Nc1c(C(N)=O)nnc2ccc(-c3ccncc3)cc12
2,12,C[C@@H](Nc1c(C(N)=O)nnc2cc(-c3ccc(S(C)(=O)=O)cc3)ccc12)C1CC1
3,22,CC(C)Nc1c(C(N)=O)nnc2cc(-c3ccncc3)ccc12

# Target: Cyclin-dependent kinase 5/CDK5 activator 1 (Homo sapiens) (UniProt Q00535+Q15078)
# Assay: Inhibition of CDK5/P25 (unknown origin) at 10 uM relative to control
# Type: protein-complex assay
row,inhibition [%],Structure (SMILES)
1,82,CC(C)Nc1c(C(N)=O)nnc2ccc(-c3ccncc3)cc12
2,32,CC(C)Nc1c(C(N)=O)nnc2cc(-c3ccncc3)ccc12

# Target: RAF proto-oncogene serine/threonine-protein kinase (Homo sapiens) (UniProt P04049)
# Assay: Inhibition of RAF1 (unknown origin) at 10 uM relative to control
row,inhibition [%],Structure (SMILES)
1,93,CC(C)Nc1c(C(N)=O)nnc2ccc(-c3ccncc3)cc12
2,21,C[C@@H](Nc1c(C(N)=O)nnc2cc(-c3ccc(S(C)(=O)=O)cc3)ccc12)C1CC1
3,61,CC(C)Nc1c(C(N)=O)nnc2cc(-c3ccncc3)ccc12

# Target: PI3-kinase p110-alpha/p85-alpha (Homo sapiens) (UniProt P27986+P42336)
# Assay: Inhibition of PIK3CA/PIK3R1 (unknown origin) at 10 uM relative to control
# Type: protein-complex assay
row,inhibition [%],Structure (SMILES)
1,94,CC(C)Nc1c(C(N)=O)nnc2ccc(-c3ccncc3)cc12
2,10,C[C@@H](Nc1c(C(N)=O)nnc2cc(-c3ccc(S(C)(=O)=O)cc3)ccc12)C1CC1
3,70,CC(C)Nc1c(C(N)=O)nnc2cc(-c3ccncc3)ccc12

# Target: Receptor-interacting serine/threonine-protein kinase 2 (Homo sapiens) (UniProt O43353)
# Assay: Inhibition of RIPK2 (unknown origin) at 10 uM relative to control
row,inhibition [%],Structure (SMILES)
1,91,CC(C)Nc1c(C(N)=O)nnc2ccc(-c3ccncc3)cc12
2,28,C[C@@H](Nc1c(C(N)=O)nnc2cc(-c3ccc(S(C)(=O)=O)cc3)ccc12)C1CC1
3,76,CC(C)Nc1c(C(N)=O)nnc2cc(-c3ccncc3)ccc12

# Target: Protein-tyrosine kinase 2-beta (Homo sapiens) (UniProt Q14289)
# Assay: Inhibition of FAK2 (unknown origin) at 10 uM relative to control
row,inhibition [%],Structure (SMILES)
1,26,CC(C)Nc1c(C(N)=O)nnc2ccc(-c3ccncc3)cc12
2,24,C[C@@H](Nc1c(C(N)=O)nnc2cc(-c3ccc(S(C)(=O)=O)cc3)ccc12)C1CC1
3,78,CC(C)Nc1c(C(N)=O)nnc2cc(-c3ccncc3)ccc12

# Target: Leucine-rich repeat serine/threonine-protein kinase 2 (Homo sapiens, UniProt Q5S007)
# Assay: Inhibition of LRRK2 (unknown origin) at 10 uM relative to control
row,inhibition [%],Structure (SMILES)
1,95,CC(C)Nc1c(C(N)=O)nnc2ccc(-c3ccncc3)cc12
2,97,C[C@@H](Nc1c(C(N)=O)nnc2cc(-c3ccc(S(C)(=O)=O)cc3)ccc12)C1CC1

# Target: Macrophage colony-stimulating factor 1 receptor (Homo sapiens, UniProt P07333)
# Assay: Inhibition of CSF1R (unknown origin) at 10 uM relative to control
row,inhibition [%],Structure (SMILES)
1,90,CC(C)Nc1c(C(N)=O)nnc2ccc(-c3ccncc3)cc12
2,100,C[C@@H](Nc1c(C(N)=O)nnc2cc(-c3ccc(S(C)(=O)=O)cc3)ccc12)C1CC1

# Target: Serine/threonine-protein kinase 16 (Homo sapiens) (UniProt O75716)
# Assay: Inhibition of STK16 (unknown origin) at 10 uM relative to control
row,inhibition [%],Structure (SMILES)
1,84,CC(C)Nc1c(C(N)=O)nnc2ccc(-c3ccncc3)cc12
2,85,CC(C)Nc1c(C(N)=O)nnc2cc(-c3ccncc3)ccc12

# Target: Serine/threonine-protein kinase PLK2 (Homo sapiens) (UniProt Q9NYY3)
# Assay: Inhibition of PLK2 (unknown origin) at 10 uM relative to control
row,inhibition [%],Structure (SMILES)
1,51,CC(C)Nc1c(C(N)=O)nnc2ccc(-c3ccncc3)cc12
2,17,C[C@@H](Nc1c(C(N)=O)nnc2cc(-c3ccc(S(C)(=O)=O)cc3)ccc12)C1CC1
3,30,CC(C)Nc1c(C(N)=O)nnc2cc(-c3ccncc3)ccc12

# Target: Mitogen-activated protein kinase 10 (Homo sapiens) (UniProt P53779)
# Assay: Inhibition of MAPK10 (unknown origin) at 10 uM relative to control
row,inhibition [%],Structure (SMILES)
1,88,CC(C)Nc1c(C(N)=O)nnc2ccc(-c3ccncc3)cc12
2,21,C[C@@H](Nc1c(C(N)=O)nnc2cc(-c3ccc(S(C)(=O)=O)cc3)ccc12)C1CC1
3,81,CC(C)Nc1c(C(N)=O)nnc2cc(-c3ccncc3)ccc12

# Target: Rho-associated protein kinase 2 (Homo sapiens) (UniProt O75116)
# Assay: Inhibition of ROCK2 (unknown origin) at 10 uM relative to control
row,inhibition [%],Structure (SMILES)
1,88,CC(C)Nc1c(C(N)=O)nnc2ccc(-c3ccncc3)cc12
2,70,C[C@@H](Nc1c(C(N)=O)nnc2cc(-c3ccc(S(C)(=O)=O)cc3)ccc12)C1CC1
3,97,CC(C)Nc1c(C(N)=O)nnc2cc(-c3ccncc3)ccc12

# Target: Serine/threonine-protein kinase PLK1 (Homo sapiens) (UniProt P53350)
# Assay: Inhibition of PLK1 (unknown origin) at 10 uM relative to control
row,inhibition [%],Structure (SMILES)
1,25,CC(C)Nc1c(C(N)=O)nnc2ccc(-c3ccncc3)cc12
2,1,C[C@@H](Nc1c(C(N)=O)nnc2cc(-c3ccc(S(C)(=O)=O)cc3)ccc12)C1CC1
3,33,CC(C)Nc1c(C(N)=O)nnc2cc(-c3ccncc3)ccc12

# Target: Tyrosine-protein kinase ABL1 (Homo sapiens) (UniProt P00519)
# Assay: Inhibition of ABL1 (unknown origin) at 10 uM relative to control
row,inhibition [%],Structure (SMILES)
1,97,CC(C)Nc1c(C(N)=O)nnc2ccc(-c3ccncc3)cc12
2,68,C[C@@H](Nc1c(C(N)=O)nnc2cc(-c3ccc(S(C)(=O)=O)cc3)ccc12)C1CC1
3,91,CC(C)Nc1c(C(N)=O)nnc2cc(-c3ccncc3)ccc12

# Target: Serine/threonine-protein kinase MARK2 (Homo sapiens) (UniProt Q7KZI7)
# Assay: Inhibition of MARK2 (unknown origin) at 10 uM relative to control
row,inhibition [%],Structure (SMILES)
1,88,CC(C)Nc1c(C(N)=O)nnc2ccc(-c3ccncc3)cc12
2,80,C[C@@H](Nc1c(C(N)=O)nnc2cc(-c3ccc(S(C)(=O)=O)cc3)ccc12)C1CC1
3,95,CC(C)Nc1c(C(N)=O)nnc2cc(-c3ccncc3)ccc12

# Target: Protein kinase C beta type (Homo sapiens) (UniProt P05771)
# Assay: Inhibition of PRKCbeta1 (unknown origin) at 10 uM relative to control
# Sequence of Protein kinase C beta type (Homo sapiens) (P05771 2-671 limits assumed): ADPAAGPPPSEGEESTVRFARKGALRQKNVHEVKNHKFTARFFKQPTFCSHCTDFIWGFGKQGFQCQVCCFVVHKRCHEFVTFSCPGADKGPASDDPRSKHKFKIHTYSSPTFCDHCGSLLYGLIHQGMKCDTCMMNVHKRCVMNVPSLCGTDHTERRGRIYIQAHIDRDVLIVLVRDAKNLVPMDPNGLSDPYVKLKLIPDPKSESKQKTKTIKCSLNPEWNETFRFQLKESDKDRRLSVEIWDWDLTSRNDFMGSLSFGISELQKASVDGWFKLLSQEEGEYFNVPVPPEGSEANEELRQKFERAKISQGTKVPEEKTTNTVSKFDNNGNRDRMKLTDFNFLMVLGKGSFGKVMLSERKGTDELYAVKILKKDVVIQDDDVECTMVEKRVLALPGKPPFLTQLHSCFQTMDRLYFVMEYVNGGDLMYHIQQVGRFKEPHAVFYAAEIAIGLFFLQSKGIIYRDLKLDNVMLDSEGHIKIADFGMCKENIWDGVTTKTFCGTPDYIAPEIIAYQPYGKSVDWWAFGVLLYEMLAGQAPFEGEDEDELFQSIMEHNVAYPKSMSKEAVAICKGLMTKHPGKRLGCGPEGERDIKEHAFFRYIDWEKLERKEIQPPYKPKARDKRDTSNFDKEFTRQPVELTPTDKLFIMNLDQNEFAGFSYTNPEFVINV
row,inhibition [%],Structure (SMILES)
1,43,CC(C)Nc1c(C(N)=O)nnc2ccc(-c3ccncc3)cc12
2,0,C[C@@H](Nc1c(C(N)=O)nnc2cc(-c3ccc(S(C)(=O)=O)cc3)ccc12)C1CC1
3,15,CC(C)Nc1c(C(N)=O)nnc2cc(-c3ccncc3)ccc12

# Target: Mitogen-activated protein kinase 1 (Homo sapiens) (UniProt P28482)
# Assay: Inhibition of MAPK1 (unknown origin) at 10 uM relative to control
row,inhibition [%],Structure (SMILES)
1,26,CC(C)Nc1c(C(N)=O)nnc2ccc(-c3ccncc3)cc12
2,23,CC(C)Nc1c(C(N)=O)nnc2cc(-c3ccncc3)ccc12

# Target: Tyrosine-protein kinase SYK (Homo sapiens) (UniProt P43405)
# Assay: Inhibition of SYK (unknown origin) at 10 uM relative to control
row,inhibition [%],Structure (SMILES)
1,79,CC(C)Nc1c(C(N)=O)nnc2ccc(-c3ccncc3)cc12
2,55,C[C@@H](Nc1c(C(N)=O)nnc2cc(-c3ccc(S(C)(=O)=O)cc3)ccc12)C1CC1
3,94,CC(C)Nc1c(C(N)=O)nnc2cc(-c3ccncc3)ccc12

# Target: Calcium/calmodulin-dependent protein kinase type II subunit alpha (Homo sapiens) (UniProt Q9UQM7)
# Assay: Inhibition of CAMK2alpha (unknown origin) at 10 uM relative to control
row,inhibition [%],Structure (SMILES)
1,77,CC(C)Nc1c(C(N)=O)nnc2ccc(-c3ccncc3)cc12
2,15,C[C@@H](Nc1c(C(N)=O)nnc2cc(-c3ccc(S(C)(=O)=O)cc3)ccc12)C1CC1
3,14,CC(C)Nc1c(C(N)=O)nnc2cc(-c3ccncc3)ccc12

# Target: RAC-alpha serine/threonine-protein kinase (Homo sapiens) (UniProt P31749)
# Assay: Inhibition of AKT1 (unknown origin) at 10 uM relative to control
# Sequence of RAC-alpha serine/threonine-protein kinase (Homo sapiens) (P31749 whole entry): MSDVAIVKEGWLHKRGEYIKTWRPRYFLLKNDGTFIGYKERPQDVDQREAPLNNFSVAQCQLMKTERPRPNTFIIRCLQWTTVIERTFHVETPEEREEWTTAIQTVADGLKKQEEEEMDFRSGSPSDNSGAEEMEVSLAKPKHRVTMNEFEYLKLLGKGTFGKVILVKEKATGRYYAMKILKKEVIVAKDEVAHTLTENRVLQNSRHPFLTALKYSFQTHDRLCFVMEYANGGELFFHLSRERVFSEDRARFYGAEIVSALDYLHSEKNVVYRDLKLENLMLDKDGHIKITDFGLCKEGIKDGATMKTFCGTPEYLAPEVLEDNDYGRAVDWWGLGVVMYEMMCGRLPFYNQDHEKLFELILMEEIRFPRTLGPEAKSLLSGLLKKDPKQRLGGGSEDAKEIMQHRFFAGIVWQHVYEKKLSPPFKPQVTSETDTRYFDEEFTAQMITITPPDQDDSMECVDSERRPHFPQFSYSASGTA
row,inhibition [%],Structure (SMILES)
1,25,CC(C)Nc1c(C(N)=O)nnc2ccc(-c3ccncc3)cc12
2,4,C[C@@H](Nc1c(C(N)=O)nnc2cc(-c3ccc(S(C)(=O)=O)cc3)ccc12)C1CC1
3,13,CC(C)Nc1c(C(N)=O)nnc2cc(-c3ccncc3)ccc12
